Results: PMC8486872, “A rational blueprint for the design of chemically-controlled protein switches” (Nature Communications, 2021)
Several values for one entry are separate records, joined by “and”; a condition that tells them apart may be missing. Equal entries are not always repeated.

Tests used:
Assay type in all cases: cell-based
[1] = tested on: SEAP expression in HEK293T cells; test: Background signal of SEAP reporter and single-construct controls
Description: Supplementary Figure 7: Dose-dependence and reversibility characterization of CDHs in CDH- […]
(§1) transfected with SEAP reporter S132 and treated with 1 µM Drugs 12 hours post transfection.
(§2) Quantification of SEAP was performed 24 hours after drug treatment. b) Drug specificity of CDH-TFs. […]
Background signal of SEAP reporter in the absence of the CDH-GEMS system. HEK293T cells were transfected with pLS566 SEAP reporter plasmids and treated with drugs. Quantification of SEAP was performed 24 hours post drug treatment. f) SEAP activity upon transfecting single or paired […]
Quantification of SEAP activity of three CDHs with DMSO (dark color), specific (light color) and unspecific drug treatment (gray). […]
(culture medium) in panels of b, c, f and g were collected every 12 hours. Values were normalized to zero based on the SEAP expression at time 0. a, b, e, f, g) The bar charts show the mean ± s.d. of n = 3 biologically independent samples overlaid with a scatter dot plot of the original data points.

[2] = tested on: SEAP and Luciferase expression in HEK293T cells; test: MIMO designer cells (AIR-1/2-GEMS + CDH-3-TF); conditions: for Luciferase: Fig5c, turn OFF via CDH-3-TF; for AIR-1-GEMS controlled SEAP expression: Fig S13c; for AIR-2-GEMS controlled SEAP expression: Fig S13e
Text: We first engineered MIMO cells to respond to two drugs with distinct outputs (Fig. 5a) by co-transfecting the CDH-3-TF with either AIR-1-GEMS (Fig. 5b) or AIR-2-GEMS (Fig. 5c).
Fig. 5 Orthogonal chemical switches enable implementation of multi-input multi-output control modes in mammalian cells. a Scheme of multi-inputs multi-outputs (MIMO) designer cells where two drugs control two different outputs. b, c Cells were co-transfected with AIR-1/2-GEMS and CDH-3-TF regulate SEAP and Luciferase expression, respectively. […] AIR-1/2-GEMS coupled with SEAP expression circuits were co-transfected with CDH-1/2-TF circuits which control the Luciferase production. Respective drug concentrations ranged from 0.001 nM to 1 µM. All values presented are mean ± s.d. of three replicates and curves were fitted by four-parameters nonlinear regression. b, c, e, f, h, i Source data are available in the source data file.
Supplementary Figure 13: Orthogonal chemical switches enable implementation of multi-input multi-output control modes in mammalian cells. a) Dual drug toxicity tests in 293T cells. […]
concentrations of 1 nM, 10 nM, 100 nM and 1000 nM each drug in cell culture medium. CCK8 assay was performed 24 hours after drug treatment. Each bar represents the mean of three biological replicates ± s.d, overlaid with a scatter dot plot of the original data points. b-c) Cells were co-transfected with AIR-1-GEMS and CDH-3-TF regulate SEAP and Luciferase expression, respectively. Drug concentrations ranged from 0.001 nM to 1 µM and different combinations were added depending on the protein components, Drug-1 only (b) and Drug-3 only (c). d-e) Cells were co-transfected with AIR-2-GEMS and CDH-3-TF regulate SEAP and Luciferase expression, respectively. Drug concentrations ranged from 0.001 nM to 1 µM and different combinations were added depending on the protein […]
1-TF and CDH-3-TF circuits. Drug-1 concentrations ranged from 0.001 nM to 1 µM (left) and 1 µM Drug-1 with serial diluted Drug-3 from 0.001 nM to 1 µM (right). g) Quantification of SEAP activity controlled by CDH-1-GEMS and CDH-3-GEMS circuits. Drug-1 concentrations ranged from 0.001 nM to 1 µM (left) and Drug-3 dilution along with 1 µM Drug-1 (right). h-i) Quantification of SEAP and Luciferase activities under Drug-1. AIR-1-GEMS coupled with SEAP expression circuits (i) and CDH-1-TF circuits which control the Luciferase production (j). j-k) Quantification of SEAP and Luciferase activities under Drug-2. AIR-2-GEMS coupled with SEAP expression circuits (k) and CDH-2-TF circuits which control the Luciferase production (l). b-k) Each data point represents the mean of n = 3 biological replicates, and the dose-dependent curve were fitted using four-parameter nonlinear regression.

[3] = tested on: Gal4/UAS SEAP expression in HEK293T cells; test: Drug specificity of CDH-TFs; conditions: Suppl Fig 7b
Description: Supplementary Figure 7: Dose-dependence and reversibility characterization of CDHs in CDH-
a) Background signal of SEAP reporter in the absence of the CDH-TF system. HEK239T cells were
as §1, §2

[4] = Fig5c Luciferase via CDH-3-TF, four-parameter fit

COc1cc2c(cc1OC(C)C)[C@H](c1ccc(Cl)cc1)N(c1ccc(N(C)C[C@H]3CC[C@H](N4CCN(C)C(=O)C4)CC3)cc1)C(=O)C2 [Drug-3, NVP-CGM097]
Reporter background signal ([1]; Suppl Fig 7a, TF reporter (S132) only): 2.305 and 2.301 and 2.45 | Reporter background signal ([1]; Suppl Fig 7e, GEMS reporter (pLS566) only): 5.089 and 3.395 and 2.755 | Bottom (best-fit value) [2, 4]: 2526 | HillSlope (best-fit value) [2, 4]: -0.2874 | Span (best-fit value) [2, 4]: 8582 | Top (best-fit value) [2, 4]: 11108 | logIC50 (best-fit value) ([2]; Fig5c Luciferase via CDH-3-TF, four-parameter fit, drug in nM): 0.378 | Luciferase ([2]; 0.001 nM): 11408 and 10803 and 9477 | Luciferase ([2]; 0.01 nM): 8964 and 10094 and 8469 | Luciferase ([2]; 0.05 nM): 9839 and 9595 and 9040 | Luciferase ([2]; 0.1 nM): 9399 and 10012 and 6733 | Luciferase ([2]; 0.5 nM): 8698 and 9248 and 7194 | Luciferase ([2]; 1 nM): 7508 and 6014 and 5224 | Luciferase ([2]; 5 nM): 7040 and 7013 and 4899 | Luciferase ([2]; 50 nM): 6881 and 6483 and 4547 | Luciferase ([2]; 100 nM): 6853 and 5994 and 4849 | Luciferase ([2]; 500 nM): 3847 and 3669 and 3338 | Luciferase ([2]; 1000 nM): 2560 and 2436 and 2236 | CDH-3-TF controlled Luciferase expression ([2]; Fig S13c (with AIR-1-GEMS), Drug-3 0.01 nM): 74322 RLU and 90639 RLU and 90152 RLU | CDH-3-TF controlled Luciferase expression ([2]; Fig S13c (with AIR-1-GEMS), Drug-3 0.1 nM): 79497 RLU and 97593 RLU and 89748 RLU | CDH-3-TF controlled Luciferase expression ([2]; Fig S13c (with AIR-1-GEMS), Drug-3 1 nM): 92895 RLU and 90324 RLU and 97096 RLU | CDH-3-TF controlled Luciferase expression ([2]; Fig S13c (with AIR-1-GEMS), Drug-3 3.14 nM): 89025 RLU and 81214 RLU and 83886 RLU | CDH-3-TF controlled Luciferase expression ([2]; Fig S13c (with AIR-1-GEMS), Drug-3 10 nM): 71915 RLU and 80976 RLU and 86610 RLU | CDH-3-TF controlled Luciferase expression ([2]; Fig S13c (with AIR-1-GEMS), Drug-3 31.4 nM): 73972 RLU and 79521 RLU and 71327 RLU | CDH-3-TF controlled Luciferase expression ([2]; Fig S13c (with AIR-1-GEMS), Drug-3 100 nM): 58208 RLU and 70422 RLU and 71065 RLU | CDH-3-TF controlled Luciferase expression ([2]; Fig S13c (with AIR-1-GEMS), Drug-3 314 nM): 42892 RLU and 48456 RLU and 50289 RLU | CDH-3-TF controlled Luciferase expression ([2]; Fig S13c (with AIR-1-GEMS), Drug-3 1000 nM): 30804 RLU and 29063 RLU and 25322 RLU | AIR-1-GEMS controlled SEAP expression ([2]; Drug-3 0.01 nM): 2.627 U/L and 3.059 U/L and 3.456 U/L | AIR-1-GEMS controlled SEAP expression ([2]; Drug-3 0.1 nM): 2.503 U/L and 2.294 U/L and 2.87 U/L | AIR-1-GEMS controlled SEAP expression ([2]; Drug-3 1 nM): 2.418 U/L and 1.987 U/L and 3.339 U/L | AIR-1-GEMS controlled SEAP expression ([2]; Drug-3 3.14 nM): 2.659 U/L and 2.285 U/L and 3.202 U/L | AIR-1-GEMS controlled SEAP expression ([2]; Drug-3 10 nM): 2.675 U/L and 2.964 U/L and 4.021 U/L | AIR-1-GEMS controlled SEAP expression ([2]; Drug-3 31.4 nM): 3.041 U/L and 3.191 U/L and 3.396 U/L | AIR-1-GEMS controlled SEAP expression ([2]; Drug-3 100 nM): 2.602 U/L and 2.779 U/L and 2.696 U/L | AIR-1-GEMS controlled SEAP expression ([2]; Drug-3 314 nM): 2.611 U/L and 3.076 U/L and 2.832 U/L | AIR-1-GEMS controlled SEAP expression ([2]; Drug-3 1000 nM): 3.25 U/L and 2.611 U/L and 2.639 U/L | CDH-3-TF controlled Luciferase expression ([2]; Fig S13e (with AIR-2-GEMS), Drug-3 0.01 nM): 41565 RLU and 51927 RLU and 50033 RLU | CDH-3-TF controlled Luciferase expression ([2]; Fig S13e (with AIR-2-GEMS), Drug-3 0.1 nM): 58083 RLU and 52382 RLU and 52587 RLU | CDH-3-TF controlled Luciferase expression ([2]; Fig S13e (with AIR-2-GEMS), Drug-3 1 nM): 58208 RLU and 58951 RLU and 60752 RLU | CDH-3-TF controlled Luciferase expression ([2]; Fig S13e (with AIR-2-GEMS), Drug-3 3.14 nM): 50716 RLU and 61071 RLU and 59090 RLU | CDH-3-TF controlled Luciferase expression ([2]; Fig S13e (with AIR-2-GEMS), Drug-3 10 nM): 56023 RLU and 57202 RLU and 60529 RLU | CDH-3-TF controlled Luciferase expression ([2]; Fig S13e (with AIR-2-GEMS), Drug-3 31.4 nM): 53333 RLU and 47578 RLU and 50640 RLU | CDH-3-TF controlled Luciferase expression ([2]; Fig S13e (with AIR-2-GEMS), Drug-3 100 nM): 44259 RLU and 48370 RLU and 51647 RLU | CDH-3-TF controlled Luciferase expression ([2]; Fig S13e (with AIR-2-GEMS), Drug-3 314 nM): 32705 RLU and 39602 RLU and 35080 RLU | CDH-3-TF controlled Luciferase expression ([2]; Fig S13e (with AIR-2-GEMS), Drug-3 1000 nM): 15038 RLU and 22579 RLU and 17745 RLU | AIR-2-GEMS controlled SEAP expression ([2]; Drug-3 0.01 nM): 23.8276 U/L and 27.0293 U/L and 24.7478 U/L | AIR-2-GEMS controlled SEAP expression ([2]; Drug-3 0.1 nM): 31.2293 U/L and 29.7436 U/L and 28.9473 U/L | AIR-2-GEMS controlled SEAP expression ([2]; Drug-3 1 nM): 33.4988 U/L and 33.4382 U/L and 38.599 U/L | AIR-2-GEMS controlled SEAP expression ([2]; Drug-3 3.14 nM): 29.7735 U/L and 33.7772 U/L and 32.4262 U/L | AIR-2-GEMS controlled SEAP expression ([2]; Drug-3 10 nM): 34.6343 U/L and 33.3124 U/L and 32.8022 U/L | AIR-2-GEMS controlled SEAP expression ([2]; Drug-3 31.4 nM): 36.5713 U/L and 29.6375 U/L and 31.1491 U/L | AIR-2-GEMS controlled SEAP expression ([2]; Drug-3 100 nM): 34.5656 U/L and 34.2561 U/L and 36.2322 U/L | AIR-2-GEMS controlled SEAP expression ([2]; Drug-3 314 nM): 30.9331 U/L and 30.4872 U/L and 34.4499 U/L | AIR-2-GEMS controlled SEAP expression ([2]; Drug-3 1000 nM): 13.1028 U/L and 12.5357 U/L and 11.75 U/L | IC50 ([2]; Homo sapiens, HEK-293T, Fig5c Luciferase turn OFF via CDH-3-TF, four-parameter fit, read-out: IC50 (best-fit value)): 2.39 nM | Reporter signal, drug specificity ([3]; CDH1): 58.9096 and 56.9625 and 57.522 | Reporter signal, drug specificity ([3]; CDH2): 99.5028 and 95.5176 and 91.4654 | Reporter signal, drug specificity ([3]; CDH3): 52.7796 and 52.4144 and 49.1641
